Measured values reported in paper PMC8301926 (Biomolecules, 2021).
Values joined by “and” are separate entries in the source; they are usually repeats but may differ in a detail not shown here. Equal values may be shown once. Read-outs that look alike come from different tables or passages of the source.

Key:
[1] = target: T1, recombinant human monoamine oxidase A (hMAO-A) (Homo sapiens, UniProt P21397); assay: hMAO-A inhibition, MAO-Glo chemiluminescent assay; format: biochemical; conditions: for IC50: mean ± SD of triplicate experiments; for SI (selectivity index): ratio of the IC50 value for hMAO-A inhibition to that for hMAO-B inhibition
T1 sequence (P21397 1-527): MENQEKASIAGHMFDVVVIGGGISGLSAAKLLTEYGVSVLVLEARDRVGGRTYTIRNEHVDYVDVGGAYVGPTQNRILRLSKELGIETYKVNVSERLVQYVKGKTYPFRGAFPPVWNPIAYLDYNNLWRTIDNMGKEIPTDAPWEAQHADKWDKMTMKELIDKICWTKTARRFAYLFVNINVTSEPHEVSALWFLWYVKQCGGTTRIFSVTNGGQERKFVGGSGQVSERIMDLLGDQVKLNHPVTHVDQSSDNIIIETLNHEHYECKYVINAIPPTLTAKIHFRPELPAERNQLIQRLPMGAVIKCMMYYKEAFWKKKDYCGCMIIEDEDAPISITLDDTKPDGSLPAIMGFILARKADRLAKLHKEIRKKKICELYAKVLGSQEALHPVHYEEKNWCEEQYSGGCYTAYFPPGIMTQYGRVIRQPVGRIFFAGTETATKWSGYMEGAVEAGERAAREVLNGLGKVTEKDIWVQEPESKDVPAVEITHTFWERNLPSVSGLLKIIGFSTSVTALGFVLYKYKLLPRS

[2] = target: T2, recombinant human monoamine oxidase B (hMAO-B) (Homo sapiens, UniProt P27338); assay: hMAO-B inhibition, MAO-Glo chemiluminescent assay; format: biochemical; conditions: mean ± SD of triplicate experiments
T2 sequence (P27338 1-520): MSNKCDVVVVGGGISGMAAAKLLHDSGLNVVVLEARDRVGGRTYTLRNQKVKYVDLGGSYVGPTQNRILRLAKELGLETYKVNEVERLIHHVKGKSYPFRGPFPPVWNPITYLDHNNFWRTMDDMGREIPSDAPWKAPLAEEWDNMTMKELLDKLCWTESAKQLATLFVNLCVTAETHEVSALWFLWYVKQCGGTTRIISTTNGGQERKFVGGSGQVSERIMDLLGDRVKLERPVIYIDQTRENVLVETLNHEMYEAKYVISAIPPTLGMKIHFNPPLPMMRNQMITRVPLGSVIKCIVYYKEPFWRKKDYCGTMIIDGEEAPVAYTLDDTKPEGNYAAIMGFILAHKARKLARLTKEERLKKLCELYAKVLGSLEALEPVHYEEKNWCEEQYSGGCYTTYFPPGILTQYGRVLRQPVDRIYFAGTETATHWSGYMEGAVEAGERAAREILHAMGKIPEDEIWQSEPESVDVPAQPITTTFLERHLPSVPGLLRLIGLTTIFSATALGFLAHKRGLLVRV

[3] = target: T1, recombinant human monoamine oxidase A (hMAO-A); assay: hMAO-A enzyme kinetics (Lineweaver-Burk, Dixon, secondary plots); format: biochemical; conditions: for Ki: from secondary plots; for Inhibition Type, hMAO-A: Lineweaver-Burk and Dixon plots
[4] = target: T2, recombinant human monoamine oxidase B (hMAO-B); assay: hMAO-B enzyme kinetics (Lineweaver-Burk, Dixon, secondary plots); format: biochemical; conditions: for Ki: from secondary plots; for Inhibition Type, hMAO-B: Lineweaver-Burk and Dixon plots
[5] = tested on: recombinant human MAO-A (hMAO-A); set-up: method as in earlier work; conditions: ref 27 (Dittman et al., 2004); read-out: IC50, recombinant human MAO-A (literature); cited from earlier work
[6] = target: T3, human M4 muscarinic acetylcholine receptor (hM4R) (Homo sapiens, UniProt P08173); assay: M4 (h) functional GPCR assay, antagonist effect, cAMP HTRF; format: cell-based; conditions: CHO cells, cAMP; read-out: Reference IC50, M4 reference antagonist
T3 construct: host or cells: CHO cells
T3 sequence (P08173 1-479): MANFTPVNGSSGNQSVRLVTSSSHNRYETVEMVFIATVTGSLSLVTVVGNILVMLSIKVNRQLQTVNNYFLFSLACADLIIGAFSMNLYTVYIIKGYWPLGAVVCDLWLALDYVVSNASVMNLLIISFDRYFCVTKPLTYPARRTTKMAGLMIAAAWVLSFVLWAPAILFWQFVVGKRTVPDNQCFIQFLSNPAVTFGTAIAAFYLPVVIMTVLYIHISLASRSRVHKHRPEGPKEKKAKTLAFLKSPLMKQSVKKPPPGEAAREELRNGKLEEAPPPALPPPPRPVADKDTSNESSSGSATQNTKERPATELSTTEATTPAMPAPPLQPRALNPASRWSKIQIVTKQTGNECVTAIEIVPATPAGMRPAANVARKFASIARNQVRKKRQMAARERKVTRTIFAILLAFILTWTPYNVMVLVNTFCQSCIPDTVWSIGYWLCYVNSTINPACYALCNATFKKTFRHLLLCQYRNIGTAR
Protocol: The cellular and nuclear receptor functional assays were carried out at Eurofins Cerep (Le Bois I’ Eveque, France) following the in-house protocols (catalog items G029-1262, G029-1474, G030-1658, G030-1659, G031-1243, G031-1244, G032-1670, G032-1671, G033-4217, and G033-4212). The experimental methods for the assays were as described in the previous reports and the general methodology is summarized in the Supplementary Information Table S1. Recombinant human Chinese hamster ovary (CHO) cells and rat basophilic leukemic (RBL) cells were transfected with the GPCR genes of interest (hM1R, hM2R, hM3R, hM4R, and hM5R). The functional assay provided the readouts based on the measurements of calcium ion mobilization (for the Gαq/11-coupled receptors) and cAMP level (for the Gαi/o-coupled receptors).
Stable CHO cells expressing the transfected cDNA of human M2 receptors were suspended in a medium containing HBSS buffer complemented with 20-mM HEPES buffer (pH 7.4) and 500-µM IBMX, whereas the stable human M4 receptor cloned CHO cells were distributed in HBSS buffer with 20-mM HEPES/NaOH (pH 7.4), 70-mM NaCl, 5.33-mM KCl, 1.25-mM CaCl2, 0.5-mM MgCl2, 0.41-mM MgSO4, 0.441-mM KH2PO4, 0.3-mM Na2HPO4, 0.1% glucose, and 500-µM IBMX. […] The cAMP level was calculated as the ratio of the signal measured at 665 nm to that measured at 620 nm. […]
Assay Source Stimulus Incubation Measured Detection References […]

SMILES: C[C@H]1COC2=C1C(=O)C(=O)c1c2ccc2c1CCCC2(C)C [Cryptotanshinone]
- IC50 ([1]; IC50, hMAO-A): < 10 µM and 8.7 µM
- SI (selectivity index) [1]: 0.38
- IC50 [2]: 23.1 ± 2.1 µM
- Ki ([3]; Kic, hMAO-A): 4.99 ± 0.34 µM
- Ki ([3]; Kiu, hMAO-A): 38.1 ± 1.79 µM
- Inhibition Type, hMAO-A [3]: Mixed
- Inhibition Type, hMAO-A ([3]; listed as 3): mixed-mode
- Ki ([4]; Kic, hMAO-B): 9.33 ± 0.1 µM
- Inhibition Type, hMAO-B [4]: Competitive
- Inhibition Type, hMAO-B ([4]; listed as 3): competitive enzyme inhibition
- IC50 [5]: 84 µM

SMILES: Cc1cccc2c3c(ccc12)C1=C(C(=O)C3=O)[C@@H](C)CO1 [Dtan I, dihydrotanshinone I, reference compound]
- IC50 [5]: 23 µM

SMILES: CCOC(=O)c1c(C)[nH]c2ccc3c(c12)CN1CCc2cc(OC)ccc2C1O3 (stereo not shown) [PD 102807, reference compound]
- IC50 [6]: 0.036 µM

SMILES: Cc1coc2c1C(=O)C(=O)c1c-2ccc2c1CCCC2(C)C [Tanshinone IIA]
- IC50 ([1]; read-out: IC50, hMAO-A): < 10 µM and 6.08 µM
- SI (selectivity index) [1]: 0.35
- IC50 [2]: < 25 µM and 17.5 µM
- Inhibition Type, hMAO-A [3]: Mixed
- Inhibition Type, hMAO-A ([3]; listed as 2): mixed-mode
- Ki ([3]; read-out: Kic, hMAO-A): 0.72 ± 0.13 µM
- Ki ([3]; read-out: Kiu, hMAO-A): 2.74 ± 0.37 µM
- Inhibition Type, hMAO-B [4]: Non-competitive
- Inhibition Type, hMAO-B ([4]; listed as 2): noncompetitive inhibition
- Ki ([4]; read-out: Kic, hMAO-B): 12.9 ± 1.14 µM
- Ki ([4]; read-out: Kiu, hMAO-B): 13.7 ± 0.58 µM
- IC50 [5]: > 400 µM
